For 10 compounds, IC50 and Kd results are on record in ChEMBL document CHEMBL5113528 (J Med Chem, 2022).

Usually IC50 stands for the midpoint of a concentration-inhibition curve. One may read the Kd as the equilibrium constant for the complex coming apart. Read a high Kd as weaker binding.

Assay [1] concerns the target T1, N-terminal Xaa-Pro-Lys N-methyltransferase 1 (Homo sapiens, UniProt Q9BV86).
T1 sequence (Q9BV86 whole entry): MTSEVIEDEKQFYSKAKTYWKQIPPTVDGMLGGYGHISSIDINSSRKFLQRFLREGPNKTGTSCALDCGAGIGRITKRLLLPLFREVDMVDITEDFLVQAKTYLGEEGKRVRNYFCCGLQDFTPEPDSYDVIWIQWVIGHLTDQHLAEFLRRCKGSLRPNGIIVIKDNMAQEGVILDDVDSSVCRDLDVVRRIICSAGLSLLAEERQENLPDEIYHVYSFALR
In words: Inhibition of full length His-NTMT1 (1 to 222 residues) (unknown origin) expressed in Escherichia coli BL21 (DE3) assessed as SAH production by Mtase-glo luminescence assay.

For assay [2], the target named is T1, N-terminal Xaa-Pro-Lys N-methyltransferase 1.
Description: Binding affinity to NTMT1 (unknown origin)assessed as dissociation constant in absence of SAM by isothermal titration calorimetry analysis
Assay [3] has the same target. This is another data set of the same source.
Description: Binding affinity to NTMT1 (unknown origin) assessed as dissociation constant in presence of SAM by isothermal titration calorimetry analysis
The target is the same in assay [4]. In words: Inhibition of full length NTMT1 (1 to 222 residues) (unknown origin) expressed in Escherichia coli BL21 (DE3) using GPKRIA as substrate preincubated for 10 mins followed by substrate addition measured after 15 mins by microplate reader method.

`C/N=c1\nc(-c2ccccc2)n(-c2ccccc2)s1`: the IC50 in assay [1] amounted to 0.46 µM.

Turning to `CC(C)(NC(=O)O[C@@H]1CN2CCC1CC2)c1csc(-c2ccc(F)cc2)n1`, the Kd was 0.16 µM in assay [2] and 0.0325 µM in assay [3].

In assay [4], `CC(C)(NC(=O)O[C@@H]1CN2CCC1CC2)c1csc(-c2ccc(CCC(=O)O)cc2)n1` gave an IC50 of more than 100 µM.

`CC(C)(NC(=O)O[C@@H]1CN2CCC1CC2)c1csc(-c2ccccc2)n1` came in with an IC50 in assay [4] of 2.7 µM.

`Cc1nc(C(C)(C)NC(=O)O[C@@H]2CN3CCC2CC3)cs1` yielded a half-maximal inhibitory concentration (IC50) in assay [4] of more than 100 µM.

In assay [4], `CC(C)(NC(=O)OC1CCCCC1)c1csc(-c2ccc(F)cc2)n1` had an IC50 of more than 100 µM.

The compound `CC(C)(NC(=O)O[C@@H]1CN2CCC1CC2)c1csc(-c2ccc(Br)cc2)n1` gave a half-maximal inhibitory concentration (IC50) in assay [4] of 1.5 µM.

`CC(C)OC(=O)NC(C)(C)c1csc(-c2ccc(F)cc2)n1` came in with an IC50 in assay [4] of more than 100 µM.

In assay [4], `CC(C)(NC(=O)O[C@@H]1CN2CCC1CC2)c1csc(-c2ccc(/C=C/C(=O)O)cc2)n1` returned a concentration for half-maximal inhibition (IC50) of more than 100 µM.

For `Cc1ccc(-c2nc(C(C)(C)NC(=O)O[C@@H]3CN4CCC3CC4)cs2)cc1`, in assay [4], half-maximal inhibition (IC50) was put at 1.7 µM.
